Measurements taken from US4021431A, “3-(Piperidino-lower-alkyl)-indoles” (Sterling Drug Inc., priority 1975, dated 1977).
Counter-ions that a name gives are not always drawn.

What follows are compounds tested on adjuvant-induced arthritis (assay: inhibition of adjuvant-induced arthritis test (AA)). Details: Rattus norvegicus, po, read-out: AA (% Inhib.).
Experimental: The inhibition of adjuvant-induced arthritis test used in the evaluation of the instant compounds is described briefly as follows: Adult male Sprague-Dawley strain rats weighing 200-230 grams were used; 0.1 ml. of a 0.6% suspension of adjuvant (M. Butyricum, Difco Laboratories, Detroit, Michigan) in heavy mineral oil was injected into the plantar tissue of the left hind paw. A negative control group was injected with mineral oil only. Symptoms of polyarthritis began to appear approximately ten days after adjuvant administration, and beginning on the ninth day after adjuvant injection, the animals were given, by gavage, twelve daily medications of the test compounds suspended in 1% gum tragacanth in a volume of 1 ml./100 g. of body weight. Both the negative control and adjuvant injected control animals received the vehicle only. Food and water are permitted ad libitum. Twenty-four hours after the last medication, the animals were weighed, the degree of arthritic involvement (that is the increase in foot edema measured plethysmographically as described above), and plasma inflammation units were determined. The results were expressed as percent inhibition calculated from the average differences in total foot volume of both hind paws between the adjuvant injected control and medicated rats, correcting for difference in foot volume of the oil injected negative control group.
Following foot volume measurements, the animals were anesthetized with ether and bled by heart puncture into rubber stoppered, evacuated glass tubes (calibrated to draw 2.7 ml.) containing 0.3 ml. of 0.1M sodium oxalate solution for determination of plasma inflammation units (P.I.U.). The unclotted blood was centrifuged, and 0.1 ml. of the plasma was diluted with 5.0 of 0.9% sodium chloride solution. The P.I.U.'s are direct spectrophotometer optical density readings expressed as the difference between preheated and heated plasma, corrected for 1:50 dilution. The results were expressed as percent inhibition calculated from the difference between the average plasma uncorrected for average plasma inflammation units of oil-injected negative control rats.
All data were obtained on oral administration.
For `COc1ccc2c(c1)c(CCN(Cc1ccccc1)C(C)(C)C)c(C)n2C(=O)c1ccccc1` [72 (N-Benzyl), 1-benzoyl-3-[2-(N-benzyl-N-t-butylamino)ethyl]-5-methoxy-2-methylindole hydrochloride], the inhibition in vivo at 0.08 µM, 0.08 µmol/kg was 62%. Compound `COc1ccc2c(c1)c(CCN1CCCCC1CC1CCCCC1)c(C)n2C(=O)c1ccccc1` (centres unmarked) [Example 1, 1-Benzoyl-3-[2-(2-cyclohexylmethylpiperidino)ethyl]-5-methoxy-2-methylindole] has an inhibition in vivo at 0.1 µM, 0.1 µmol/kg of 79%. Compound `COc1ccc2c(c1)c(CCN1CCCCC1CC1CCCCC1)c(C)n2C(=O)c1ccc(C)cc1` (centres unmarked) [Example 2] has an inhibition in vivo at 0.08 µM, 0.08 µmol/kg of 37%. `COc1ccc(C(=O)n2c(C)c(CCN3CCCCC3CC3CCCCC3)c3cc(OC)ccc32)cc1` (centres unmarked) [Example 3] showed an inhibition in vivo at 0.18 µM, 0.18 µmol/kg of 64%. For `COc1ccc2c(c1)c(CCN1CCCCC1CC1CCCCC1)c(C)n2C(=O)c1ccc(Cl)cc1Cl` (centres unmarked) [Example 4], the inhibition in vivo at 0.02 µM, 0.02 µmol/kg was 28% and the inhibition in vivo at 0.324 µM, 0.324 µmol/kg was 80%. In the case of `COc1ccc2c(c1)c(CCN1CCCCC1CC1CCCCC1)c(C)n2C(=O)c1ccc(Cl)c(Cl)c1` (centres unmarked) [Example 5], the inhibition in vivo at 0.08 µM, 0.08 µmol/kg is reported as 0%. `COc1ccc2c(c1)c(CCN1CCCCC1CC1CCCCC1)c(C)n2C(=O)c1ccc(F)cc1` (centres unmarked) [Example 6] was tested, and the inhibition in vivo at 0.02 µM, 0.02 µmol/kg was 66% and the inhibition in vivo at 0.08 µM, 0.08 µmol/kg was 84%. With `COc1ccc2c(c1)c(CCN1CCCCC1CC1CCCCC1)c(C)n2C(=O)c1ccccc1Br` (centres unmarked) [Example 7] the inhibition in vivo at 0.08 µM, 0.08 µmol/kg was 29%. `COc1ccc2c(c1)c(CCN1CCCCC1CC1CCCCC1)c(C)n2C(=O)C=Cc1ccccc1` (centres unmarked) [Example 8] showed an inhibition in vivo at 0.08 µM, 0.08 µmol/kg of 30%. For `COc1ccc2c(c1)c(CCN1CCCCC1CC1CCCCC1)c(C)n2C(=O)c1ccccc1F` (centres unmarked) [Example 9], the inhibition in vivo at 0.162 µM, 0.162 µmol/kg was 72%. `COc1ccc2c(c1)c(CCN1CCCCC1CC1CCCCC1)c(C)n2C(=O)c1cccs1` (centres unmarked) [Example 10] showed an inhibition in vivo at 0.324 µM, 0.324 µmol/kg of 63%. Work on `COc1ccc2c(c1)c(CCN1CCCCC1CC1CCCCC1)c(C)n2C(=O)c1ccco1` (centres unmarked) [Example 11] yielded an inhibition in vivo at 0.324 µM, 0.324 µmol/kg of 50%. In the case of `COc1ccc2c(c1)c(CCN1CCCCC1CC1CCCCC1)c(C)n2C(=O)c1cccc(F)c1` (centres unmarked) [Example 12], the inhibition in vivo at 0.08 µM, 0.08 µmol/kg is reported as 17%. With `Cc1c(CCN2CCCCC2CC2CCCCC2)c2ccccc2n1C(=O)c1ccccc1` (centres unmarked) [Example 48] the inhibition in vivo at 0.08 µM, 0.08 µmol/kg was 33%. Work on `Cc1c(CCN2CCCCC2CC2CCCCC2)c2cc(F)cc(F)c2n1C(=O)c1ccccc1` (centres unmarked) [Example 50] yielded an inhibition in vivo at 0.162 µM, 0.162 µmol/kg of 87%. Work on `Cc1c(CCN2CCCCC2CC2CCCCC2)c2cc(F)ccc2n1C(=O)c1ccccc1` (centres unmarked) [Example 58] yielded an inhibition in vivo at 0.08 µM, 0.08 µmol/kg of 51%. Compound `COc1ccc2c(c1)c(CCN1CCCCC1C1CCCCC1)c(C)n2C(=O)c1ccccc1` (centres unmarked) [Example 62, 1-benzoyl-3-[2-(2-cyclohexylpiperidino)ethyl]-5-methoxy-2-methylindole hydrochloride] has an inhibition in vivo at 0.324 µM, 0.324 µmol/kg of 107%. With `COc1ccc2c(c1)c(CCN1CCCCC1C1CCCCC1)c(C)n2C(=O)c1ccc(F)cc1` (centres unmarked) [Example 63, 1-(4-fluorobenzoyl)-3-[2-(2-cyclohexylpiperidino)ethyl]-5-methoxy-2-methylindole hydrochloride] the inhibition in vivo at 0.08 µM, 0.08 µmol/kg was 84%. In the case of `COc1ccc2c(c1)c(CCN1CCCCC1CCC1CCCCC1)c(C)n2C(=O)c1ccccc1` (centres unmarked) [Example 64, 1-benzoyl-3-{2-[2-(2-cyclohexylethyl)piperidino]ethyl}-5-methoxy-2-methylindole], the inhibition in vivo at 0.01 µM, 0.01 µmol/kg is reported as 36%, the inhibition in vivo at 0.04 µM, 0.04 µmol/kg is reported as 70% and the inhibition in vivo at 0.16 µM, 0.16 µmol/kg is reported as 100%. Compound `COc1ccc2c(c1)c(CCN1CCCCC1CCC1CCCCC1)c(C)n2C(=O)c1ccc(F)cc1` (centres unmarked) [Example 65, 1-(4-fluorobenzoyl)-3-{2-[2-(2-cyclohexylethyl)piperidino]ethyl}-5-methoxy-2-methylindole hydrochloride] has an inhibition in vivo at 0.08 µM, 0.08 µmol/kg of 85%. Work on `COc1ccc2c(c1)c(CCN1CCCCC1CC1CCCCC1)cn2C(=O)c1ccccc1` (centres unmarked) [Example 67] yielded an inhibition in vivo at 0.08 µM, 0.08 µmol/kg of 25%. In the case of `COc1ccc2c(c1)c(CCN(C(C)C)C(C)C)c(C)n2C(=O)c1ccccc1` [Example 73, 1-benzoyl-3-[2-(diisopropylamino)ethyl]-5-methoxy-2-methylindole hydrochloride], the inhibition in vivo at 0.005 µM, 0.005 µmol/kg is reported as 0%, the inhibition in vivo at 0.02 µM, 0.02 µmol/kg is reported as 0% and the inhibition in vivo at 0.08 µM, 0.08 µmol/kg is reported as 53%. With `COc1ccc2c(c1)c(CCN1CCCCC1CC1CCCCC1)c(C)n2C(=O)c1ccc(Cl)cc1` (centres unmarked) [Example 84, 1-(4-chlorobenzoyl)-3-[2-(2-cyclohexylmethylpiperidino)ethyl]-5-methoxy-2-methylindole] the inhibition in vivo at 0.01 µM, 0.01 µmol/kg was 36%, the inhibition in vivo at 0.04 µM, 0.04 µmol/kg was 70% and the inhibition in vivo at 0.16 µM, 0.16 µmol/kg was 100%. `COc1ccc2c(c1)c(CCN(Cc1ccccc1)C(C)(C)C)c(C)n2C(=O)c1ccc(F)cc1` [Example 85, 1-(4-fluorobenzoyl)-3-[2-(N-benzyl-N-t-butylamino)ethyl]-5-methoxy-2-methylindole hydrochloride] showed an inhibition in vivo at 0.005 µM, 0.005 µmol/kg of 0%, an inhibition in vivo at 0.02 µM, 0.02 µmol/kg of 11% and an inhibition in vivo at 0.08 µM, 0.08 µmol/kg of 104%. `COc1ccc2c(c1)c(CCNC(C)(C)C)c(C)n2C(=O)c1ccc(F)cc1.Cl` [Example 86, 1-(4-fluorobenzoyl)-3-[2-(N-t-butylamino)ethyl]-5-methoxy-2-methylindole hydrochloride] gave an inhibition in vivo at 0.005 µM, 0.005 µmol/kg of 13% and an inhibition in vivo at 0.02 µM, 0.02 µmol/kg of 71%. Compound `COc1ccc2c(c1)c(CCN(C(C)C)C(C)C)c(C)n2C(=O)c1ccc(F)cc1` [Example 87, 1-(4-fluorobenzoyl)-3-[2-(diisopropylamino)ethyl]-5-methoxy-2-methylindolehydrochloride] has an inhibition in vivo at 0.005 µM, 0.005 µmol/kg of 43%, an inhibition in vivo at 0.02 µM, 0.02 µmol/kg of 73% and an inhibition in vivo at 0.08 µM, 0.08 µmol/kg of 98%. Work on `COc1ccc2c(c1)c(CCN1CCC(CCC3CCCCC3)CC1)c(C)n2C(=O)c1ccc(F)cc1` [Example 88, 1-(4-fluorobenzoyl)-3-{2-[4-(2-cyclohexylethyl)piperidino]ethyl}-5-methoxy-2-methylindole hydrochloride] yielded an inhibition in vivo at 0.08 µM, 0.08 µmol/kg of 75%. Work on `COc1ccc2c(c1)c(CCN1CCC(CCC3CCCCC3)CC1)c(C)n2C(=O)c1ccccc1` [Example 89, 1-benzoyl-3-{2-[4-(2-cyclohexylethyl)piperidino]ethyl}-5-methoxy-2-methylindole hydrochloride] yielded an inhibition in vivo at 0.08 µM, 0.08 µmol/kg of 89%. For `COc1ccc2c(c1)c(CCN1CCC(C3CCCCC3)CC1)c(C)n2C(=O)c1ccc(F)cc1` [Example 90, 1-(4-fluorobenzoyl)-3-[2-(4-cyclohexylpiperidino)ethyl]-5-methoxy-2-methylindole hydrochloride], the inhibition in vivo at 0.08 µM, 0.08 µmol/kg was 77%.

Same assay, conditions: oral, twelve daily medications, 0.08 μM/kg.
With `COc1ccc2c(c1)c(CCNC(C)(C)C)c(C)n2C(=O)c1ccc(F)cc1.Cl` [Example 86, 1-(4-fluorobenzoyl)-3-[2-(N-t-butylamino)ethyl]-5-methoxy-2-methylindole hydrochloride] the “AA: toxicity noted in place of % inhibition” value was “Toxic”.

Same assay, conditions: oral, twelve daily medications, 0.16 μM/kg.
In the case of `COc1ccc2c(c1)c(CCNC(C)(C)C)c(C)n2C(=O)c1ccccc1.Cl` [72 (N-H), 1-benzoyl-3-[2-(N-t-butylamino)ethyl]-5-methoxy-2-methylindole hydrochloride], the “AA: toxicity noted in place of % inhibition” value is reported as “Toxic”.
